# Patent EP0583821A1, “Atriopeptins, guanylate cyclase activators, and phosphodiesterase inhibitors as treatment for glaucoma, hydrocephalus and cerebral edema (cranial fluid volume dysfunction)” (THE GENERAL HOSPITAL CORPORATION, priority 1987, dated 1988)
# Experiments:
# guanylate cyclase = experiment: Ciliary process guanylate cyclase activity (Tables 2 and 3); type: biochemical
# choroid epithelial cells = experiment: Intracellular cyclic GMP content of isolated choroid epithelial cells; type: cell-based, rabbit; settings: 5 minutes incubation; 1 uM rANP; PDE inhibitors theophylline (10 mM) and IBMX (0.5 mM)
# Procedure: The effect of rANP on membrane-bound guanylate cyclase and adenylate cyclase activity in various brain-barrier tissues and tissue fractions from rabbit was compared with its activity in cerebrum and cerebellum. Guanylate cyclase was measured as the rate of cyclic GMP formation by modifications of the technique of Waldman et al., supra, incorporated herein by reference. Briefly, tissues were homogenized (10 mg wet weight per milliliter) in 50 mM tris-HCl, pH 8.0, 1 mM EDTA, 1 mM dithiothreitol, and 250 mM sucrose and centrifuged at 100,000g to obtain a P1 pellet. […] Cyclic GMP formed was subsequently measured by radioimmunoassay as described in example 6, infra. […] Adenylate cyclase activity in P1 fractions was measured according to the method described by Nathanson, et al., Science; 204:843 (1979); Mol. Pharmacol. 18:199 (1980), see Figure 1C . […]
# Purified secretory epithelial cells were isolated and maintained in tissue culture medium in the absence of any hormones. […] More diffuse staining was found only in epithelium and not in vascular or stromal components of choroid epithelial cells as determined by fluorescein optics. […]
# For one experiment, the mean ± range is shown for duplicate determinations, each assayed in triplicate for cyclic GMP content. […] After the cells were incubated for 5 minutes, they were killed and their cyclic GMP content was determined. […]
# albino rabbits = experiment: Intraocular pressure after unilateral intravitreal injection; type: in vivo, rabbit
# Procedure: The measurement of intraocular pressure (IOP), was performed using procedures similar to those described in Nathanson, Brit. J. Pharmacol., 73:97 (1981) and Nathanson, Current Eye Res., 4:191 (1985). Briefly, male (3-5 kg), New Zealand white rabbits were housed under standard conditions and exposed to a 12 hr light-dark cycle. IOP was measured with a Perkins applanation tonometer after topical anesthesia with 0.4% benoxinate (and 0.25% sodium fluorescein). The tonometer had been calibrated previously by connecting the anterior chamber of enucleated rabbit eyes to a manometer (and reservoir) and taking tonometer readings at different pressures. A number of preliminary IOP readings were made in order to accommodate the animals to the measurement procedure. Readings were then taken just prior to drug or vehicle injection and at 3, 9, 20, 27, 44, 51, 72, and 144 hours post-injection.
# Following topical anesthesia with 0.4% benoxinate, rabbits received rat atrial natriuretic peptide 1-28 (rANP) via a 10 microliter, intravitreal injection, through a 30g 1/2" needle, the tip of which was positioned at the approximate center of the eye. Drug was dissolved in a solution of artificial aqueous humor containing (in mmol/liter): NaCl 130, KCl 2.7, […] 18.3, MgCl₂ 1.33, CaCl₂ 1.5, Glucose 10, HEPES 20, and L-ascorbic acid, 2.5. The contralateral eye received a 10 microliter injection of vehicle alone. In order to evaluate the possible effects of intravitreal injection, per se, on IOP, additional rabbits received a 10 microliter intravitreal injection of vehicle in one eye only.
# The contralateral eye received intravitreal injection of vehicle alone. Over a period of 9 hours, the ipsilateral eyes underwent a marked decline in pressure of about 5mm (Hg). This degree of hypotension persisted until about 48 hours post-injection and then underwent a slow recovery over the following four days. The decrease in pressure, compared with pre-injection IOP, was statistically significant at all time points from 3 to 72 hours post-injection. Values shown are mean ± SEM. Filled circles represent the IOP in the ipsilateral eye; open circles represent the IOP in the contralateral eye. *(p < .05); **(p < .01), for paired Students T-test relative to preinjection pressure (time 0). […] During the entire period, no affect on pupillary diameter of either the ipsilateral or contralateral eye was noted.
# This contralateral decrease was statistically significant (p <.05 vs. pre-injection IOP) at 20 and 44 hours following injection. […]
substance,measurement,setting,value
Ser-Leu-Arg-Arg-atriopeptin III (APIII) [rANP 1-28],CILIARY PROCESS GUANYLATE CYCLASE ACTIVITY (Percent Increase),"guanylate cyclase; Table 2, 10⁻⁶M",60 ± 27 Percent Increase
same,CILIARY PROCESS GUANYLATE CYCLASE ACTIVITY (Percent Increase),"guanylate cyclase; Table 3, concentration not given",74 Percent Increase
same,increase in cyclic GMP content,choroid epithelial cells,more than an eightfold increase
same,persistence of hypotension post-injection,albino rabbits; 0.3 nmoles intravitreal,about 48 hours
same,"IOP in the contralateral, vehicle-injected eye",albino rabbits; 0.3 nmoles intravitreal in ipsilateral eye,also showed a decrease
same,"decline in intraocular pressure, ipsilateral eye","albino rabbits; 0.3 nmoles intravitreal, eight albino rabbits, over a period of 9 hours",about 5 mm (Hg)
same,effect on pupillary diameter,"albino rabbits; ipsilateral or contralateral eye, entire period",no affect
